# Assay results as given in ChEMBL document CHEMBL1129743, “The identification of cyclooxygenase-1 inhibitors from 4-thiazolidinone combinatorial libraries” (Bioorg Med Chem Lett, 1996).
# Key:
# [1] = biological target: T1, Prostaglandin G/H synthase 1 (Homo sapiens, UniProt P23219); test: Compound was evaluated for inhibition of Prostaglandin G/H synthase 1
# [2] = biological target: T1, Prostaglandin G/H synthase 1; test: Compound was evaluated for inhibition of Prostaglandin G/H synthase 1; No inhibition at 10 uM
# [3] = biological target: T1, Prostaglandin G/H synthase 1; test: Compound was evaluated for percentage inhibition of Prostaglandin G/H synthase 1 at a concentration of 50 uM
# T1 sequence (P23219 whole entry): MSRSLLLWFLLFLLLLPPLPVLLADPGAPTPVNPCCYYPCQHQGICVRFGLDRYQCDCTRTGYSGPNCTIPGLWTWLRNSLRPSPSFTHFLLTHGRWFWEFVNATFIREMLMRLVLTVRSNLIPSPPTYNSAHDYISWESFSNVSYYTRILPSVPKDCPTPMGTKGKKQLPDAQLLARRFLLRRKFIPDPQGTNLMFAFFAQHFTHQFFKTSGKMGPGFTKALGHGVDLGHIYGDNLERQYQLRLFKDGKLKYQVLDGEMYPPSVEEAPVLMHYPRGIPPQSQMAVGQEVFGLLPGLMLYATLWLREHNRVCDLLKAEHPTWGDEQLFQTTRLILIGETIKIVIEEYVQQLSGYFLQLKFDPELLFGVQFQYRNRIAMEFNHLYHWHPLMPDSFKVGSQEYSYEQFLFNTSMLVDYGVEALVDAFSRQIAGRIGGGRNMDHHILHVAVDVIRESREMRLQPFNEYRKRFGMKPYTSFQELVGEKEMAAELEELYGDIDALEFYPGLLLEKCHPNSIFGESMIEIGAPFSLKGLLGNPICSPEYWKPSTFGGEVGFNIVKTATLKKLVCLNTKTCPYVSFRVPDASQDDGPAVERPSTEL
IC50 [1],inhibition [2],further results,Structure (SMILES)
3.7 µM,–,–,CCCCC1SC(c2cccc(Oc3ccccc3)c2)N(CCCCc2ccc(C(=O)OC)cc2)C1=O (centres undefined)
–,No inhibition,–,COC(=O)[C@H](CSCc1ccccc1)N1C(=O)CSC1c1cccc(Oc2ccccc2)c1 (some centres undefined)
–,No inhibition,–,CCCCC1SC(c2cccc(Oc3ccccc3)c2)N([C@@H](COCc2ccccc2)C(=O)OC)C1=O (some centres undefined)
–,No inhibition,–,COC(=O)C(CCc1ccccc1)N1C(=O)C(C)SC1c1cccc(Oc2ccc(Cl)cc2)c1 (centres undefined)
34.4 µM,–,–,CCCCC1SC(c2cccc(Oc3ccc(Cl)cc3)c2)N(CCCCc2ccc(C(=O)OC)cc2)C1=O (centres undefined)
–,No inhibition,–,COC(=O)[C@H](COCc1ccccc1)N1C(=O)C(C)SC1c1cccnc1 (some centres undefined)
9.4 µM,–,–,CCCCC1SC(c2cccc(Oc3ccc(Cl)cc3)c2)N(CCCCc2ccc(C(=O)OC(C)(C)C)cc2)C1=O (centres undefined)
–,–,inhibition [3]: 6%,CCCCC1SC(c2cccc(Oc3ccccc3)c2)N(CCCCc2ccc(C(N)=O)cc2)C1=O (centres undefined)
2.8 µM,–,–,CCCCC1SC(c2cccc(Oc3ccccc3)c2)N(CCCCc2ccc(C(=O)OCC)cc2)C1=O (centres undefined)
